How the values were obtained:
Assay in all cases: relative viability (nuclei count vs DMSO), 5 days (fraction); higher = more cells survive
LXF-289 = test system: LXF-289
In short: (§1)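 Medians of duplicate plates are given as relative viability. That measure is the nuclei count in treated wells divided by the count in vehicle wells. Counts were taken on 4× images of lung cancer cell lines in 1536-well plates, 5 days after pin-tool dosing the day after seeding with one drug alone or a fixed anchor-drug dose plus five library-drug doses (not always all listed) in √10 steps.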

UMC-11 = test system: UMC-11
In short: as §1

LK-2 = test system: LK-2
In short: as §1

HCC-827 = test system: HCC-827
In short: as §1

NCI-H2405 = test system: NCI-H2405
In short: as §1

NCI-H3122 = test system: NCI-H3122
In short: as §1

EKVX = test system: EKVX
In short: as §1

LCLC-97TM1 = test system: LCLC-97TM1
In short: as §1

NCI-H1355 = test system: NCI-H1355
In short: as §1

SK-LU-1 = test system: SK-LU-1
In short: as §1

NCI-H441 = test system: NCI-H441
In short: as §1

NCI-H2170 = test system: NCI-H2170
In short: as §1

PC-3 [JPC-3] = test system: PC-3 [JPC-3]
In short: as §1

NCI-H1993 = test system: NCI-H1993
In short: as §1

H3255 = test system: H3255
In short: as §1

LU99A = test system: LU99A
In short: as §1

SW 1573 = test system: SW 1573
In short: as §1

HOP-62 = test system: HOP-62
In short: as §1

EPLC-272H = test system: EPLC-272H
In short: as §1

NCI-H2228 = test system: NCI-H2228
In short: as §1

`Cc1csc(=NC2CCCCC2)n1/N=C/c1ccc(O)c(O)c1O` [MIM1] + Cc1nc(NC(=O)N2CCC[C@H]2C(N)=O)sc1-c1ccnc(C(C)(C)C(F)(F)F)c1 [Alpelisib] (partner 2 µM) was tested, and the relative viability (LXF-289; first compound 0.2 µM) was 1.07, the relative viability (LXF-289; first compound 0.6325 µM) was 0.998 and the relative viability (LXF-289; first compound 2 µM) was 1.02. The relative viability (LXF-289; first compound 6.325 µM) was 0.82, the relative viability (LXF-289; first compound 20 µM) was 0.609 and the relative viability (UMC-11; first compound 0.2 µM) was 0.952. The relative viability (UMC-11; first compound 0.6325 µM) was 1.04, the relative viability (UMC-11; first compound 2 µM) was 0.962 and the relative viability (UMC-11; first compound 6.325 µM) was 0.69. It also gave a relative viability (UMC-11; first compound 20 µM) of 0.224, a relative viability (LK-2; first compound 0.2 µM) of 0.958 and a relative viability (LK-2; first compound 0.6325 µM) of 1.04. For the same compound, the relative viability (LK-2; first compound 6.325 µM) was 0.963, the relative viability (LK-2; first compound 20 µM) was 0.374 and the relative viability (HCC-827; first compound 0.2 µM) was 0.953. It also gave a relative viability (HCC-827; first compound 0.6325 µM) of 0.986, a relative viability (HCC-827; first compound 2 µM) of 0.913 and a relative viability (HCC-827; first compound 6.325 µM) of 0.441. It also gave a relative viability (HCC-827; first compound 20 µM) of 0.34, a relative viability (NCI-H2405; first compound 0.2 µM) of 0.787 and a relative viability (NCI-H2405; first compound 0.6325 µM) of 0.85. It also gave a relative viability (NCI-H2405; first compound 2 µM) of 0.739, a relative viability (NCI-H2405; first compound 6.325 µM) of 0.76 and a relative viability (NCI-H2405; first compound 20 µM) of 0.644. It also gave a relative viability (NCI-H3122; first compound 0.2 µM) of 0.825, a relative viability (NCI-H3122; first compound 0.6325 µM) of 0.833 and a relative viability (NCI-H3122; first compound 2 µM) of 0.881. It also gave a relative viability (NCI-H3122; first compound 6.325 µM) of 0.644, a relative viability (NCI-H3122; first compound 20 µM) of 0.249 and a relative viability (EKVX; first compound 0.2 µM) of 0.924. For the same compound, the relative viability (EKVX; first compound 0.6325 µM) was 0.91, the relative viability (EKVX; first compound 2 µM) was 0.934 and the relative viability (EKVX; first compound 6.325 µM) was 0.575. For the same compound, the relative viability (EKVX; first compound 20 µM) was 0.615, the relative viability (LCLC-97TM1; first compound 0.2 µM) was 0.255 and the relative viability (LCLC-97TM1; first compound 0.6325 µM) was 0.258. For the same compound, the relative viability (LCLC-97TM1; first compound 2 µM) was 0.207, the relative viability (LCLC-97TM1; first compound 6.325 µM) was 0.26 and the relative viability (LCLC-97TM1; first compound 20 µM) was 0.129. The relative viability (NCI-H1355; first compound 0.2 µM) was 0.89, the relative viability (NCI-H1355; first compound 0.6325 µM) was 0.805 and the relative viability (NCI-H1355; first compound 2 µM) was 0.924. For the same compound, the relative viability (NCI-H1355; first compound 6.325 µM) was 0.672, the relative viability (NCI-H1355; first compound 20 µM) was 0.359 and the relative viability (SK-LU-1; first compound 0.2 µM) was 1. For the same compound, the relative viability (SK-LU-1; first compound 0.6325 µM) was 1.06, the relative viability (SK-LU-1; first compound 2 µM) was 1.26 and the relative viability (SK-LU-1; first compound 6.325 µM) was 0.87. For the same compound, the relative viability (SK-LU-1; first compound 20 µM) was 0.715, the relative viability (NCI-H441; first compound 0.2 µM) was 0.75 and the relative viability (NCI-H441; first compound 0.6325 µM) was 0.63. It also gave a relative viability (NCI-H441; first compound 2 µM) of 0.655, a relative viability (NCI-H441; first compound 6.325 µM) of 0.594 and a relative viability (NCI-H441; first compound 20 µM) of 0.187. It also gave a relative viability (NCI-H2170; first compound 0.2 µM) of 0.769, a relative viability (NCI-H2170; first compound 0.6325 µM) of 0.814 and a relative viability (NCI-H2170; first compound 2 µM) of 0.812. The relative viability (NCI-H2170; first compound 6.325 µM) was 0.651, the relative viability (NCI-H2170; first compound 20 µM) was 0.337 and the relative viability (PC-3 [JPC-3]; first compound 0.2 µM) was 1.06. The relative viability (PC-3 [JPC-3]; first compound 0.6325 µM) was 1.03, the relative viability (PC-3 [JPC-3]; first compound 2 µM) was 1.02 and the relative viability (PC-3 [JPC-3]; first compound 6.325 µM) was 0.884. The relative viability (PC-3 [JPC-3]; first compound 20 µM) was 0.716, the relative viability (NCI-H1993; first compound 0.2 µM) was 0.715 and the relative viability (NCI-H1993; first compound 0.6325 µM) was 0.619. The relative viability (NCI-H1993; first compound 2 µM) was 0.758, the relative viability (NCI-H1993; first compound 6.325 µM) was 0.724 and the relative viability (NCI-H1993; first compound 20 µM) was 0.55. The relative viability (H3255; first compound 0.2 µM) was 0.753, the relative viability (H3255; first compound 0.6325 µM) was 0.56 and the relative viability (H3255; first compound 2 µM) was 0.642. For the same compound, the relative viability (H3255; first compound 6.325 µM) was 0.523, the relative viability (H3255; first compound 20 µM) was 0.311 and the relative viability (LU99A; first compound 0.2 µM) was 0.488. It also gave a relative viability (LU99A; first compound 0.6325 µM) of 0.495, a relative viability (LU99A; first compound 2 µM) of 0.459 and a relative viability (LU99A; first compound 6.325 µM) of 0.487. The relative viability (LU99A; first compound 20 µM) was 0.327, the relative viability (SW 1573; first compound 0.2 µM) was 0.809 and the relative viability (SW 1573; first compound 0.6325 µM) was 0.758. It also gave a relative viability (SW 1573; first compound 2 µM) of 0.808, a relative viability (SW 1573; first compound 6.325 µM) of 0.639 and a relative viability (SW 1573; first compound 20 µM) of 0.618. The relative viability (HOP-62; first compound 0.2 µM) was 0.785, the relative viability (HOP-62; first compound 0.6325 µM) was 0.958 and the relative viability (HOP-62; first compound 2 µM) was 0.608. It also gave a relative viability (HOP-62; first compound 6.325 µM) of 1.03, a relative viability (HOP-62; first compound 20 µM) of 0.24 and a relative viability (EPLC-272H; first compound 0.2 µM) of 0.968. It also gave a relative viability (EPLC-272H; first compound 0.6325 µM) of 0.769, a relative viability (EPLC-272H; first compound 2 µM) of 0.973 and a relative viability (EPLC-272H; first compound 6.325 µM) of 0.958. It also gave a relative viability (EPLC-272H; first compound 20 µM) of 0.294, a relative viability (NCI-H2228; first compound 0.2 µM) of 0.76 and a relative viability (NCI-H2228; first compound 0.6325 µM) of 1.09. It also gave a relative viability (NCI-H2228; first compound 2 µM) of 0.666, a relative viability (NCI-H2228; first compound 6.325 µM) of 0.335 and a relative viability (NCI-H2228; first compound 20 µM) of 0.197.

— the supplement of paper PMC10307832
